Results published in patent publication US12116362B2, “Monocyclic compounds useful as GPR120 modulators” (Valo Health, Inc., priority 2016, dated 2024).

Legend:
[1] = biological target: T1, human GPR120 (Homo sapiens, UniProt Q5NUL3); experiment: Human GPR120 Calcium-Release Assay (aequorin luminescence, CHO-K1 cells); type: cell-based; settings: pEC50=−log(EC50) from curve fit; short variant of human GPR120 in CHO-K1 with Gα16 and apoaequorin; read-out: Ca2+ pEC50 (converted)
T1 construct: expressed in transfected cells; host or cells: CHO-K1 coexpressing Gα16 and mitochondrial apoaequorin
T1 sequence (Q5NUL3 1-361): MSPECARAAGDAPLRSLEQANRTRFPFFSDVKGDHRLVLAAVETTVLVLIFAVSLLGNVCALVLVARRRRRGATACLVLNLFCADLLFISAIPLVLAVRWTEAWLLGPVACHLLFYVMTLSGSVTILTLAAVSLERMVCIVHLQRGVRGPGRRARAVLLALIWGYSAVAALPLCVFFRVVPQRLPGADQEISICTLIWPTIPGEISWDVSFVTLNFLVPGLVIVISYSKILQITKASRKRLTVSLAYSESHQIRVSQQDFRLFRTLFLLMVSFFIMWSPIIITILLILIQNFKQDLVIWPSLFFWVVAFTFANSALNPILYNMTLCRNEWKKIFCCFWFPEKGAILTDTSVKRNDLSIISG
From the text: This in vitro assay tests compounds' ability to activate heterologously expressed human GPR120 via G-protein coupling leading to generation of inositol 1,4,5-triphosphate and mobilization of intracellular calcium. This functional cellular assay is based on the luminescence of mitochondrial aequorin following intracellular Ca^2+ release. Aequorin is a photoprotein isolated from the jellyfish Aequorea victoria. The active protein is formed in the presence of molecular oxygen from apoaequorin and its cofactor coelenterazine. Binding of Ca^2+ to the active protein induces a conformational change, resulting in oxidation of coelenterazine and subsequent blue luminescence.
The short variant of the human GPR120 receptor (GenBank accession Number AAI01176) was stably expressed in a CHO-K1 cell line coexpressing Gα16 and mitochondrial apoaequorin.
Cells were grown to mid-log phase in culture media without antibiotics, were detached with PBS/EDTA, centrifuged and resuspended in assay buffer (DMEM-F12 medium with 15 mM HEPES pH 7.0 and 0.1% protease free BSA) at a concentration of 10^6 cells/mL. Cells were incubated at room temperature for at least 4 hours with 5 μM coelenterazine h.
Test compounds were dissolved in 100% DMSO to a concentration of 20 mM to provide stock solutions. Serial dilutions were performed from stock solutions in 100% DMSO to obtain intermediate concentrations 200-fold higher than the concentrations to be tested. Each sample was diluted 100-fold into assay buffer. 50 μl of these compound solutions were dispensed into each well of 96-well assay plates. The final concentration of compounds tested in the assay ranged from 5 nM to 100 μM. α-Linolenic acid was used as a reference compound. Each test was performed in duplicate.
To start the assay, 50 μl of cell suspension were added to each well of the assay plate. The resulting luminescence was recorded using a Hamamatsu Functional Drug Screening System 6000 (FDSS 6000), and raw data were expressed as relative light units (RLU).
(§1) To determine agonist potencies (EC50 values), non-linear least-squares curve fits of the raw data (RLU) were performed in the GraphPad Prism software package, using the 4-parameter model with variable Hill Slope:
Reported below in Table 1 are pEC50 values (pEC50=−log(EC50) from curve fit) for representative compounds of Formula I in this assay, Ca2+pEC50.

[2] = biological target: T2, human GPR120 (Homo sapiens, UniProt Q5NUL3); experiment: GPR120 β-Arrestin Recruitment Assay (PathHunter, CHO-K1 cells); type: cell-based; settings: pEC50=−log(EC50) from curve fit; CHO-K1 cells, 90 min incubation; read-out: β-Arr pEC50 (converted)
T2 construct: host or cells: CHO-K1
From the text: This in vitro assay tests compounds' ability to activate intracellular signaling via 3-Arrestin recruitment to heterologously expressed human GPR120. This functional cellular assay utilizes enzyme fragment complementation with β-galactosidlase (β-gal) as a functional reporter (DiscoveRx PathlHunter® β-Arrestin assay platform). The human (GPR120 receptor (GenBank accession Number NM_181745) was fused in frame with the small enzyme fragment ProLink™ and co-expressed in CHO-K1 cells with a fusion protein of β-Arrestin 2 and the larger, N-terminal deletion mutant of β-gal. Activation by a GPR120 agonist stimulates binding of β-arrestin to the ProLink-tagged GPCR and forces complementation of the two enzyme fragments, resulting in the formation of an active β-gal enzyme. This interaction leads to an increase in enzyme activity that can be measured using chemiluminescent PathHunter® Detection Reagents.
One day prior to the assay, cells were seeded in a total volume of 20 μl of growth medium into white walled 384-well microplates and incubated at 37° C./5% CO2 overnight. On the day of the assay, growth medium was removed and 20 μl assay buffer (HBSS+10 mM HEPES+0.1% heat-inactivated BSA) were added to each well.
Test compounds were dissolved in 100% DMSO to a concentration of 10 mM to provide stock solutions. Serial dilutions were performed from stock solutions into assay buffer to obtain intermediate concentrations of 5-fold higher than the concentrations to be tested. 5 μl of the 5× compound solutions were added to the cells and the assay plates were incubated at 37° C. for 90 minutes. The final concentration of compounds tested in the assay ranged from 1.5 nM to 100 μM. Following incubation, 12.5 μl of PathHunter® detection reagent were added to each well, and plates were incubated at room temperature for 60 minutes. Chemiluminescence was read using an EnVision plate reader (PerkinElmer), raw data were expressed as relative light units (RLU).
as §1
T2 sequence (Q5NUL3 1-377 isoform Q5NUL3-1): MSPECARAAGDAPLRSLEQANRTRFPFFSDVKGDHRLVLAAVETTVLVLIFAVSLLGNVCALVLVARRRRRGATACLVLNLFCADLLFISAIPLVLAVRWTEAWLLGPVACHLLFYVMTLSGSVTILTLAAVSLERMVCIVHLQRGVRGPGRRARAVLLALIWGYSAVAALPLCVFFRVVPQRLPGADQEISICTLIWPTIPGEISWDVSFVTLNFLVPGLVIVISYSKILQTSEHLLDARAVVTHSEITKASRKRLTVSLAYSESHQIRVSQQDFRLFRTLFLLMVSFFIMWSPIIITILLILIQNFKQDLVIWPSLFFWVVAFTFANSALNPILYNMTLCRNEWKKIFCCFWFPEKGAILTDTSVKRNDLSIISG
T2 sequence (P32121 whole entry partner): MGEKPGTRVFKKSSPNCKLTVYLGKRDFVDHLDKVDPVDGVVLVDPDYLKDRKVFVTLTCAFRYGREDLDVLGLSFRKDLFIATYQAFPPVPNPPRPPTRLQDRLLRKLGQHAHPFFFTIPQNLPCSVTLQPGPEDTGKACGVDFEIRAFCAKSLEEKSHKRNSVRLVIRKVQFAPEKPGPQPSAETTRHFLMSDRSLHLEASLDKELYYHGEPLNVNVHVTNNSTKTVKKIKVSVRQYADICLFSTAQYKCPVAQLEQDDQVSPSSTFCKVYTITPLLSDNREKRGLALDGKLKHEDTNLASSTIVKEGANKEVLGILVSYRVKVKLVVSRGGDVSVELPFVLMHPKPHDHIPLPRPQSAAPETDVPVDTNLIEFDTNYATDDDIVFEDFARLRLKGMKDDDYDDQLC
Reported below in Table 1 are pEC50 values (pEC50=−log(EC50) from curve fit) for compounds of Formula I in this assay, β-Arr pEC50 Alternatively, percent activation at a single concentration is reported.

Row | EC50 [1] | EC50 [2] | SMILES
1 | > 100000 nM | 1580 nM | O=S1(=O)c2ccccc2CN1c1ccnc(Oc2cccc(Cl)c2)n1 [Compound 22]
2 | > 100000 nM |  | O=S1(=O)c2ccccc2CN1c1ccnc(Oc2ccc(Cl)c(Cl)c2)n1 [Compound 33]
3 | > 100000 nM | 1580 nM | Cc1cc(Oc2nccc(N3Cc4ccccc4S3(=O)=O)n2)ccc1Cl [Compound 35]
4 | 7940 nM | 631 nM | O=S1(=O)c2ccccc2CN1c1ccnc(Oc2ccc(OC(F)(F)F)cc2Cl)n1 [Compound 36]
5 | 200 nM | 1000 nM | O=S1(=O)c2ccccc2CN1c1ccnc(Oc2cccc(F)c2)n1 [Compound 37]
6 | 1000 nM |  | O=S1(=O)c2ccccc2CN1c1ccnc(Oc2cncc(Cl)c2)n1 [Compound 51]
7 | 794 nM | > 10000 nM | O=S1(=O)c2ccccc2CN1c1ccnc(Oc2ccccc2F)n1 [Compound 56]
8 | 631 nM | 2510 nM | O=S1(=O)c2ccccc2CN1c1ccnc(OC2CCC2)n1 [Compound 58]
9 | 12600 nM | 6310 nM | O=S1(=O)c2ccccc2CN1c1ccnc(OC2CCCCC2)n1 [Compound 59]
10 | 501 nM | 1580 nM | O=S1(=O)c2ccccc2CN1c1ccnc(OC2CCCC2)n1 [Compound 60]
11 | > 100000 nM | > 31600 nM | CN1CC(Oc2nccc(N3Cc4ccccc4S3(=O)=O)n2)C1 [Compound 61]
12 | > 100000 nM | 501 nM | CN1CCC(Oc2nccc(N3Cc4ccccc4S3(=O)=O)n2)C1 (stereo not shown) [Compound 63]
13 | 501 nM | 1580 nM | COc1cc(N2Cc3ccccc3S2(=O)=O)nc(Oc2cccnc2)n1 [Compound 79]
14 | 2510 nM | 501 nM | COc1cc(Oc2cccnc2)nc(N2Cc3ccccc3S2(=O)=O)n1 [Compound 80]
15 | 20000 nM | 2510 nM | CNC(=O)c1cc(N2Cc3ccccc3S2(=O)=O)nc(Oc2ccc(Cl)cc2)n1 [Compound 89]
16 | > 10000 nM | 1000 nM | COc1cc(Oc2ccc(Cl)cc2)nc(N2Cc3ccccc3S2(=O)=O)n1 [Compound 96]
17 | 1000 nM | 631 nM | O=S1(=O)c2ccccc2CN1c1cc(C(F)(F)F)nc(Oc2ccc(Cl)cc2)n1 [Compound 97]
18 | 2510 nM | 794 nM | O=S1(=O)c2ccccc2CN1c1cc(C(F)(F)F)nc(Oc2ccccc2)n1 [Compound 98]
19 | 158 nM | 501 nM | COc1cc(N2Cc3ccccc3S2(=O)=O)nc(Oc2ccc(F)cc2)n1 [Compound 99]
20 | 15800 nM | 12600 nM | O=S1(=O)c2ccccc2CN1c1nccc(Oc2cccnc2)n1 [Compound 114]
21 | 501 nM | > 10000 nM | O=C1c2ccccc2CN1c1cccc(Oc2cccnc2)n1 [Compound 122]
22 | > 100000 nM | > 31600 nM | O=S1(=O)c2ccccc2CN1c1cccc(Oc2cccc(Cl)c2)n1 [Compound 123]
23 | 79.4 nM | 39.8 nM | Cc1cc(OC2CCC2)nc(N2Cc3ccccc3S2(=O)=O)c1 [Compound 128]
24 | 316 nM | 158 nM | Cc1cc(Oc2ccc(Cl)cc2)nc(N2Cc3ccccc3S2(=O)=O)c1 [Compound 131]

Second part, the molecule before the results:

Row | SMILES | EC50 [1] | EC50 [2]
25 | O=S1(=O)c2ccccc2CN1c1ccnc(Oc2ccccc2)n1 [Compound 16] | 1260 nM | 6310 nM
26 | Cc1cncc(Oc2nccc(N3Cc4ccccc4S3(=O)=O)n2)c1 [Compound 19] | 794 nM | 5010 nM
27 | O=S1(=O)c2ccccc2CN1c1ccnc(Oc2ccccc2Cl)n1 [Compound 20] | 3980 nM | 6310 nM
28 | O=S1(=O)c2ccccc2CN1c1ccnc(Oc2ccc(Cl)cc2)n1 [Compound 21] | 501 nM | > 7940 nM
29 | Cc1ccc(Oc2nccc(N3Cc4ccccc4S3(=O)=O)n2)cc1Cl [Compound 34] | 200 nM | 1580 nM
30 | O=S1(=O)c2ccccc2CN1c1ccnc(Oc2ccc(Br)cc2)n1 [Compound 41] | 794 nM | 2510 nM
31 | O=S1(=O)c2ccccc2CN1c1ccnc(Oc2ccc(F)cc2)n1 [Compound 42] | 316 nM | 1000 nM
32 | COc1ccc(Oc2nccc(N3Cc4ccccc4S3(=O)=O)n2)cc1 [Compound 44] | 1580 nM | > 10000 nM
33 | O=S1(=O)c2ccccc2CN1c1ccnc(Oc2ccc(OCc3ccccc3)cc2)n1 [Compound 45] | > 100000 nM | 1580 nM
34 | COc1cncc(Oc2nccc(N3Cc4ccccc4S3(=O)=O)n2)c1 [Compound 50] | 6310 nM | 5010 nM
35 | CCOc1nccc(N2Cc3ccccc3S2(=O)=O)n1 [Compound 67] | 6310 nM | > 10000 nM
36 | O=S1(=O)c2ccccc2CN1c1ccnc(OCc2ccccn2)n1 [Compound 72] | > 100000 nM | > 10000 nM
37 | Cc1cc(N2Cc3ccccc3S2(=O)=O)nc(Oc2cccnc2)n1 [Compound 77] | 1000 nM | 2510 nM
38 | O=S1(=O)c2ccccc2CN1c1cc(C(F)(F)F)nc(Oc2cccnc2)n1 [Compound 78] | 3980 nM | 1580 nM
39 | CCc1cc(N2Cc3ccccc3S2(=O)=O)nc(Oc2cccnc2)n1 [Compound 82] | 1260 nM | 2510 nM
40 | O=S1(=O)c2ccccc2CN1c1cc(C2CC2)nc(Oc2cccnc2)n1 [Compound 83] | 794 nM | 2510 nM
41 | Cc1cc(N2Cc3ccccc3S2(=O)=O)nc(Oc2ccc(Cl)cc2)n1 [Compound 86] | 398 nM | 251 nM
42 | Cc1cc(Oc2ccc(Cl)cc2)nc(N2Cc3ccccc3S2(=O)=O)n1 [Compound 87] | 1580 nM | 794 nM
43 | COc1cc(N2Cc3ccccc3S2(=O)=O)nc(OC2CC(F)(F)C2)n1 [Compound 93] | 631 nM | 
44 | COc1cc(Oc2ccc(F)cc2)nc(N2Cc3ccccc3S2(=O)=O)n1 [Compound 101] | > 100 nM | 398 nM
45 | Cc1cc(N2Cc3ccccc3S2(=O)=O)nc(Oc2ccc(F)cc2)n1 [Compound 106] | 200 nM | 1000 nM
46 | O=S1(=O)c2ccccc2CN1c1cccc(Oc2cccnc2)n1 [Compound 121] | 200 nM | 1580 nM
47 | O=S1(=O)c2ccccc2CN1c1cncc(Oc2cccnc2)n1 [Compound 142] | 1260 nM | 39800 nM
